# Results as given in patent US10745356B2, “Compositions and methods for treating tuberculosis” (priority 2015, dated 2020).
# Like-named read-outs stand apart in the source and are kept apart here.
# System: M. tuberculosis strains
# Assay: Minimum Inhibitory Concentration (MIC) against M. tuberculosis strains, resazurin microtiter plate assay
# Format: cell-based, Mycobacterium tuberculosis
# Conditions: Mycobacterium tuberculosis
# [1] = Table 4A, C6 SAR with amide, Middlebrook 7H9, 37° C. six days, resazurin fluorescence after 48 hours, read-out: MIC90
# [2] = Table 5, Middlebrook 7H9, 37° C. six days, resazurin fluorescence after 48 hours, read-out: MIC90
# [3] = Table 6, Middlebrook 7H9, 37° C. six days, resazurin fluorescence after 48 hours, read-out: MIC90
Compound,MIC90 [1] [µM],MIC90 [2] [µM],further results
Cc1cc2nccc(-c3ccccc3)c2c(C)c1-c1ccn(C)n1 [Compound 75],,,MIC90: > 125 µM
Cc1cc2nccc(-c3ccccc3)c2c(C)c1-c1ccnn1C [Compound 76],,,MIC90: 47 µM
Cc1cc2nccc(-c3ccccc3)c2c(C)c1-c1cnn(C)c1 [Compound 77],,,MIC90: 47 µM
CNC(=O)c1cc(-c2ccccc2F)c2c(C)c(-c3ccc(CN4CCOCC4)cc3)c(C)cc2n1 [Compound 78],0.6,,
CNC(=O)c1cc(-c2ccccc2F)c2c(C)c(-c3ccnc(C(F)(F)F)c3)c(C)cc2n1 [Compound 79],5,,
CNC(=O)c1cc(-c2ccccc2F)c2c(C)c(-c3ccoc3)c(C)cc2n1 [Compound 80],,,MIC90: 0.6 µM
CNC(=O)c1cc(-c2ccccc2F)c2c(C)c(-c3cccs3)c(C)cc2n1 [Compound 81],3,,
CNC(=O)c1cc(-c2ccccc2F)c2c(C)c(-c3cnc(C(=O)O)nc3)c(C)cc2n1 [Compound 82],80,,
CNC(=O)c1cc(-c2ccccc2F)c2c(C)c(-c3ccnc(N)c3)c(C)cc2n1 [Compound 83],7.5,,
CNC(=O)c1cc(-c2ccccc2F)c2c(C)c(-c3ccnc(C)c3)c(C)cc2n1 [Compound 84],6,,
CNC(=O)c1cc(-c2ccccc2F)c2c(C)c(-c3cccnc3)c(C)cc2n1 [Compound 85],3,,
CNC(=O)c1cc(-c2ccccc2F)c2c(C)c(C3=CCNCC3)c(C)cc2n1 [Compound 86],,,MIC90: 20 µM
CNC(=O)c1cc(-c2ccccc2F)c2c(C)c(C3=CCC(C(=O)O)CC3)c(C)cc2n1 (centres unmarked) [Compound 87],2.5,,
CNC(=O)c1cc(-c2ccccc2F)c2c(C)c(C3=CCN(S(=O)(=O)N4CCOCC4)CC3)c(C)cc2n1 [Compound 88],10,,
CNC(=O)c1cc(-c2ccccc2F)c2c(C)c(C3=CCC(C(=O)N4CCOCC4)CC3)c(C)cc2n1 (centres unmarked) [Compound 89],1.25,,
CNC(=O)c1cc(-c2ccccc2F)c2c(C)c(C3=CCN(C(=O)N4CCOCC4)CC3)c(C)cc2n1 [Compound 90],5,,

Compound,MIC90 [1] [µM],MIC90 [2] [µM],further results
CNC(=O)c1cc(-c2ccccc2F)c2c(C)c(C3=CCC(CO)CC3)c(C)cc2n1 (centres unmarked) [Compound 91],,,MIC90: 0.6 µM
CNC(=O)c1cc(-c2ccccc2F)c2c(C)c(C3=CCC(CN4CCOCC4)CC3)c(C)cc2n1 (centres unmarked) [Compound 92],1.25,,
Cc1cc2nccc(-c3cccnc3)c2c(C)c1-c1ccc(CN2CCOCC2)cc1 [Compound 93],,1.6,
Cc1cc2nc(C(=O)NS(C)(=O)=O)cc(-c3ccccc3Cl)c2c(C)c1-c1ccncc1 [Compound 94],,5,
CNC(=O)c1cc(-c2ccccc2)c2c(C)c(-c3ccncc3)c(C)cc2n1 [Compound 95],,0.3,
Cc1cc2nc(C(=O)NCCO)cc(-c3ccccc3)c2c(C)c1-c1ccncc1 [Compound 96],,0.3,
Cc1cc2nc(C(=O)N[C@H]3CCC[C@@H]3O)cc(-c3ccccc3F)c2c(C)c1-c1ccncc1 [Compound 97],,< 0.16,
Cc1cc2nc(C(=O)N[C@@H]3CCC[C@H]3O)cc(-c3ccccc3F)c2c(C)c1-c1ccncc1 [Compound 98],,0.6,
CNC(=O)c1cc(C2=CCOCC2)c2c(C)c(-c3ccncc3)c(C)cc2n1 [Compound 99],,12.5,
CNC(=O)c1cc(N2CCN(C)CC2)c2c(C)c(-c3ccncc3)c(C)cc2n1 [Compound 100],,> 50,
CNC(=O)c1cc(N2CCNCC2)c2c(C)c(-c3ccncc3)c(C)cc2n1 [Compound 101],,> 50,
CNC(=O)c1cc(C2=CCCCC2)c2c(C)c(-c3ccncc3)c(C)cc2n1 [Compound 102],,3,
Cc1cc2nc(C(=O)N3CCC(N(C)C)C3)cc(-c3ccccc3Cl)c2c(C)c1-c1ccc(CN2CCOCC2)cc1 (centres unmarked) [Compound 103],,,MIC90 [3]: 0.8 µM
CNC(=O)c1cc(-c2ccnn2C)c2c(C)c(-c3ccncc3)c(C)cc2n1 [Compound 104],,,MIC90 [3]: 6 µM
Cc1cc2nc(C(=O)N[C@@H]3CN(C)C[C@@H]3F)cc(-c3ccnn3C)c2c(C)c1-c1ccncc1 [Compound 106],,,MIC90 [3]: 1.6 µM
Cc1cc2nc(C(=O)NCCO)cc(-c3ccnn3C)c2c(C)c1-c1ccncc1 [Compound 107],,,MIC90 [3]: 1.6 µM
